# From patent US9884868B2, “TGF-beta inhibitors” (Rigel Pharmaceuticals, Inc., priority 2015, dated 2018)
# Columns and labels:
# [1] = test system: GDF8 signaling (p-SMAD-3 (Ser423/425)); assay: AlphaScreen SureFire SMAD3 (p-Ser423/425) assay, GDF8-stimulated cells (GDF pSMAD (MPC11)); assay type: cell-based; details: pSMAD3 readout, read-out: GDF8 (inhibition of GDF8 signaling
# [2] = test system: TGF-β signaling (p-SMAD-3 (Ser423/425)); assay: AlphaScreen SureFire SMAD3 (p-Ser423/425) assay, TGF-β-stimulated cells (TGF-β pSMAD (MPC-11)); assay type: cell-based; details: pSMAD3 readout, read-out: TGF-β (inhibition of TGF-β signaling
# HIS-TGF-βR1 T204D = HIS-TGF-βR1 T204D (Homo sapiens (Human), UniProt P36897, T204D); assay: HTRF probe displacement assay with HIS-TGF-βR1 T204D; details: read-out: TGFbr1 IC50; HTRF probe displacement, 1 nM HIS-TGF-βR1 T204D, 1 hour at room temperature
# Chain of HIS-TGF-βR1 T204D (P36897 34-503 T204D): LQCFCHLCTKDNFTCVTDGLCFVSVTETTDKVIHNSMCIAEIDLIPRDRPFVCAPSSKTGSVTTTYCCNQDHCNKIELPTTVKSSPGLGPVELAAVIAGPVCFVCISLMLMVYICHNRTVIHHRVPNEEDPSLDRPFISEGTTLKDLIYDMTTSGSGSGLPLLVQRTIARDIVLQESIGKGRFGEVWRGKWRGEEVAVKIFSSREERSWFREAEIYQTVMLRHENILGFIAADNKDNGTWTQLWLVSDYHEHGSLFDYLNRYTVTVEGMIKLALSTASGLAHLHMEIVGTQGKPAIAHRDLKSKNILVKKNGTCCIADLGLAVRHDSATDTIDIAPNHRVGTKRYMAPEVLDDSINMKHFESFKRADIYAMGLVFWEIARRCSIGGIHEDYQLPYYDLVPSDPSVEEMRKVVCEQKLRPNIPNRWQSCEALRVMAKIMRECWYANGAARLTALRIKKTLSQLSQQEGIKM
# HIS-TGF-βR2 WT = HIS-TGF-βR2 WT (Homo sapiens (Human), UniProt P37173); assay: HTRF probe displacement assay with HIS-TGF-βR2 WT; details: read-out: TGFBr2 IC50; HTRF probe displacement, 1 nM HIS-TGF-βR2 WT, 1 hour at room temperature
# Chain of HIS-TGF-βR2 WT (P37173 23-567): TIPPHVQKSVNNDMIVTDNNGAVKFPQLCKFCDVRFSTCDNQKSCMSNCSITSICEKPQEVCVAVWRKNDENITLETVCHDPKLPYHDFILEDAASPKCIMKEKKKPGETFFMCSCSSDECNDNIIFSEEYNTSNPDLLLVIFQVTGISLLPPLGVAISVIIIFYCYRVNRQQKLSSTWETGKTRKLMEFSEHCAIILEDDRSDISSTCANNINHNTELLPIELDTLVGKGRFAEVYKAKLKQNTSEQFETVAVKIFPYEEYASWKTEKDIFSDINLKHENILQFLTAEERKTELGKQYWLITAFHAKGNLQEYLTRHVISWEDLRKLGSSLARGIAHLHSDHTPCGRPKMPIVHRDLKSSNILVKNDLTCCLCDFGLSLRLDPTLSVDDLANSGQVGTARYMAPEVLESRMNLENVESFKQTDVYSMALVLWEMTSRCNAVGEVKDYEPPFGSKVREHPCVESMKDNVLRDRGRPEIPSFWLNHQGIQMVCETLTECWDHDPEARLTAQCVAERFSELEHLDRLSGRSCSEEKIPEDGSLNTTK
Molecule,IC50 [1],IC50 [2],IC50 (HIS-TGF-βR1 T204D),IC50 (HIS-TGF-βR2 WT)
"Cc1cc(-c2ncn(C)c2-c2ccc3cn[nH]c3c2)ccc1F [Compound 5, 6-(4-(4-Fluoro-3-methylphenyl)-1-methyl-1H-imidazol-5-yl)-1H-indazole]",10 nM,20 nM,,
"Cc1cc(-c2ncn(C)c2-c2ccc3cn[nH]c3c2)ccc1F [Compound 7, 6-(4-(4-Fluoro-3-methylphenyl)-1-methyl-1H-imidazol-5-yl)-1H-indazole]",40 nM,150 nM,,
"CCc1nc(-c2cc(C)cc(F)c2)c(-c2ccc3[nH]ncc3c2)[nH]1 [Compound 142, 5-(2-Ethyl-4-(3-fluoro-5-methylphenyl)-1H-imidazol-5-yl)-1H-indazole]",670 nM,4390 nM,,
"OC(c1cnc2ccc(-c3c(-c4ccc(F)cc4)ncn3CC(F)F)nn12)C(F)(F)F (stereo not drawn) [Example 213′, 1-(6-(1-(2,2-difluoroethyl)-4-(4-fluorophenyl)-1H-imidazol-5-yl)imidazo[1,2-b]pyridazin-3-yl)-2,2,2-trifluoroethanol]",,,2.3 nM,> 15000 nM
"Fc1ccc(-c2ncn(CC(F)F)c2-c2ccc3ncc(CNCC(F)F)n3c2)cc1 [Example 275′, N-((6-(1-(2,2-difluoroethyl)-4-(4-fluorophenyl)-1H-imidazol-5-yl)imidazo[1,2-a]pyridin-3-yl)methyl)-2,2-difluoroethanamine]",,,121 nM,> 15000 nM

# Second part, the molecule after the results:
IC50 [1],IC50 [2],IC50 (HIS-TGF-βR1 T204D),IC50 (HIS-TGF-βR2 WT),Molecule
70.2 nM,,,,5-(benzo[d]thiazol-6-yl)-4-(3-chlorophenyl)thiazol-2-amine [Compound 166]
,,9.5 nM,> 15000 nM,"O=C(NC1CC1)c1cnc2ccc(-c3c(-c4ccc(F)cc4)ncn3CC(F)F)cn12 [Example 279′, N-cyclopropyl-6-(1-(2,2-difluoroethyl)-4-(4-fluorophenyl)-1H-imidazol-5-yl)imidazo[1,2-a]pyridine-3-carboxamide]"
,,426 nM,> 15000 nM,"COC(=O)Nc1cnc2ccc(-c3c(-c4ccc(F)cc4)ncn3CC(F)F)cn12 [Example 284′, methyl (6-(1-(2,2-difluoroethyl)-4-(4-fluorophenyl)-1H-imidazol-5-yl)imidazo[1,2-a]pyridin-3-yl)carbamate]"
,,376 nM,> 15000 nM,"Fc1ccc(-c2ncn(CC(F)F)c2-c2ccc3ncc(N4CCOCC4)n3c2)cc1 [Example 289′, 4-(6-(1-(2,2-difluoroethyl)-4-(4-fluorophenyl)-1H-imidazol-5-yl)imidazo[1,2-a]pyridin-3-yl)morpholine]"
,,30.5 nM,> 15000 nM,"COC(=O)N1CCn2c(nc(-c3ccc(F)cc3)c2-c2ccc3ncc(C(N)=O)n3c2)C1 [Example 291′, methyl 3-(3-carbamoylimidazo[1,2-a]pyridin-6-yl)-2-(4-fluorophenyl)-5,6-dihydroimidazo[1,2-a]pyrazine-7(8H)-carboxylate]"
,,27.2 nM,> 15000 nM,"NC(=O)c1cnc2ccc(-c3c(-c4ccc(F)cc4)nc4n3CCN(CC(F)F)C4)cn12 [Example 294′, 6-(7-(2,2-difluoroethyl)-2-(4-fluorophenyl)-5,6,7,8-tetrahydroimidazo[1,2-a]pyrazin-3-yl)imidazo[1,2-a]pyridine-3-carboxamide]"
